The subject of series [1] is human promyelocytic leukemia, HL-60 cells. Description: resazurin viability assay, 72 h (Table 1). To be noted: 72h incubation, 156 nM-100 μM. It is filed as cell-based. The source says:
(§1) In our experiments three different cell lines were used. Cells were purchased from the American Type Culture Collection (ATCC, Manassas, Va., USA). The human breast adenocarcinoma cell line, MCF-7 cells were maintained in Dulbecco's Modified Eagle Medium/Nutrient Mixture F-12 (DMEM/F12) 10% fetal calf serum (FCS, Gibco) and mouse mammary carcinoma 4T1 and human promyelocytic leukemia, HL-60 cells were maintained in Roswell Park Memorial Institute 1640 medium (RPMI-1640) 10% FCS. Media were supplemented with 2 mM GlutaMAX, and 100 U/mL penicillin, 100 μg/mL streptomycin (Life Technologies, Carlsbad, Calif., USA). Cell cultures were maintained at 37° C. in a humidified incubator in an atmosphere of 5% CO2 (Sanyo, Japan).
(§2) For viability assays cells were seeded in 96 well plates (MCF7 and 4T1: 6000, HL60: 120.000 cells/well) and incubated overnight. Compounds were dissolved in dimethyl sulfoxide (DMSO). Cells were treated with an increasing concentration of compounds having the general formula (I.) (156 nM-100 μM). Cell viability was determined after 72h incubation. Resazurin reagent (Sigma-Aldrich) was dissolved in PBS (pH 7.4) at 0.15 mg/ml concentration, sterile filtered (0.22 μm, Merck Millipore) and aliquoted at −20° C. Resazurin reagent (Sigma-Aldrich) was added at a final concentration of 25 μg/ml. After 2 hours incubation at 37° C. 5% CO2 fluorescence (530 nm excitation/580 nm emission) was recorded on a multimode microplate reader (Cytofluor4000, PerSeptive Biosytems). Viability was calculated with relation to untreated control cells and blank wells containing media without cells. IC50 values (50% inhibiting concentration) were calculated by GraphPad Prism® 5 (La Jolla, Calif., USA).
In general terms: Alamar Blue is a resazurin reagent that responds to reducing activity.

Series [2] has as its system human breast adenocarcinoma cell line, MCF-7. Description: resazurin viability assay, 72 h (Table 1). It counts as cell-based. Particulars: MCF7, 72h incubation, 156 nM-100 μM.
Source text: as §1, §2

In series [3] the test system is mouse mammary carcinoma 4T1. Description: resazurin viability assay, 72 h (Table 1). It is filed as cell-based. Particulars: 72h incubation, 156 nM-100 μM.
Source text: as §1, §2

Usually IC50 stands for the midpoint of a concentration-inhibition curve. What is called melting point is the temperature, or range, at which the solid turns liquid. Consider `Cc1ccc(-c2[nH]c3c(C(N)=O)cnn3c2NC(C)(C)CC(C)(C)C)cc1` [Example 6, 2-(p-Tolyl)-3-((2,4,4-trimethylpentan-2-yl)amino)-1H-imidazo[1,2-b]pyrazole-7-carbox-amide], for which the melting point lay within 218 to 219 °C. In series [1], this compound registered an IC50 of 12.6 µM. In addition, in series [2], the IC50 is 17 µM. This compound also yielded an IC50 in series [3] of 12.3 µM.

`COc1ccc(-c2[nH]c3c(C(N)=O)cnn3c2NC(C)(C)CC(C)(C)C)cc1` [Example 7, 2-(4-Methoxyphenyl)-3-((2,4,4-trimethylpentan-2-yl)amino)-1H-imidazo[1,2-b]pyrazole-7-carboxamide]: the melting point was in the range of 124 to 125 °C. In addition, 19 µM corresponded to half-maximal inhibition in series [1] (IC50). In addition, the half-maximal inhibitory concentration (IC50) in series [2] amounted to 18.6 µM. Further, in series [3], half-maximal inhibition (IC50) required 25.2 µM.

For the compound `COc1cc(-c2[nH]c3c(C(N)=O)cnn3c2NC(C)(C)CC(C)(C)C)ccc1OC(C)=O` [Example 8, 4-(7-Carbamoyl-3-((2,4,4-trimethylpentan-2-yl)amino)-1H-imidazo[1,2-b]pyrazol-2-yl)-2-methoxyphenyl acetate], the melting point fell in the range of 190 to 191 °C. Besides, inhibition in series [1] was half-maximal at 26.6 µM (IC50). The midpoint of inhibition in series [2], the IC50, lay at 40.6 µM. Further, the 50% inhibitory concentration (IC50) in series [3] came out at 34.1 µM.

Take `CC(C)(C)CC(C)(C)Nc1c(-c2ccc(F)cc2)[nH]c2c(C(N)=O)cnn12` [Example 10, 2-(4-Fluorophenyl)-3-((2,4,4-trimethylpentan-2-yl)amino)-1H-imidazo[1,2-b]pyrazole-7-carboxamide]: the melting point was in the range of 229 to 230 °C. Besides, the IC50 in series [1] is 17.5 µM. Moreover, the 50% inhibitory concentration (IC50) in series [2] was more than 50 µM. This compound showed a half-inhibitory concentration (IC50) in series [3] of more than 50 µM.

In turn, `COC(=O)CNc1c(-c2ccc(F)cc2)[nH]c2c(C(N)=O)cnn12` [Example 11, Methyl 2-((7-carbamoyl-2-(4-fluorophenyl)-1H-imidazo[1,2-b]pyrazol-3-yl)amino)acetate] had a melting point of 229 to 230 °C. In addition, the IC50 in series [1] was found to be 15.9 µM. For the same compound, the IC50 in series [2] was more than 50 µM. The compound further returned an IC50 in series [3] of more than 50 µM.

With `CC(C)(C)CC(C)(C)Nc1c(-c2ccc(C(F)(F)F)cc2)[nH]c2c(C(N)=O)cnn12` [Example 12, 2-(4-(Trifluoromethyl)phenyl)-3-((2,4,4-trimethylpentan-2-yl)amino)-1H-imidazo[1,2-b]pyrazole-7-carboxamide], the melting point was 192 to 193 °C. The IC50 in series [1] came out at 13.2 µM. Moreover, the IC50 in series [2] is 12.7 µM. This compound also returned an IC50 in series [3] of 20.9 µM.

In the case of `C/C(=C\c1ccccc1)c1[nH]c2c(C(N)=O)cnn2c1NC(C)(C)C` [Example 15, (E)-3-(Tert-butylamino)-2-(1-phenylprop-1-en-2-yl)-1H-imidazo[1,2-b]pyrazole-7-carbox-amide], the melting point was 190 to 191 °C. In series [1], this compound gave an IC50 of 29.2 µM. The half-maximal inhibitory concentration (IC50) in series [2] is more than 50 µM. The compound also displayed an IC50 in series [3] of more than 50 µM.

Turning to `CC(C)(C)CC(C)(C)Nc1c(C2CCCCC2)[nH]c2c(C(N)=O)cnn12` [Example 16, 2-Cyclohexyl-3-((2,4,4-trimethylpentan-2-yl)amino)-1H-imidazo[1,2-b]pyrazole-7-carbox-amide], the melting point was in the range of 190 to 192 °C. This compound showed an IC50 in series [1] of 9.35 µM. In addition, half-maximal inhibition in series [2] (IC50) required 11.1 µM. In series [3], this compound had a half-inhibitory concentration (IC50) of 12.3 µM.

With `CC(C)(C)c1[nH]c2c(C(N)=O)cnn2c1NC1CCCCC1` [Example 18, 2-(Tert-butyl)-3-(cyclohexylamino)-1H-imidazo[1,2-b]pyrazole-7-carboxamide], the melting point was in the range of 148 to 149 °C. This compound also yielded an IC50 in series [1] of 2.95 µM. Further, the IC50 in series [2] was 4.07 µM. Also, the 50% inhibitory concentration (IC50) in series [3] was 4.24 µM.

Compound `CC(C)(C)Nc1c(C(C)(C)C)[nH]c2c(C(N)=O)cnn12` [Example 19, 2-(Tert-butyl)-3-(tert-butylamino)-1H-imidazo[1,2-b]pyrazole-7-carboxamide] showed a melting point of 221 °C. In series [1], this compound registered an IC50 of 4.99 µM. The compound further returned an IC50 in series [2] of 27.9 µM. In series [3], this compound returned a 50% inhibitory concentration (IC50) of 23.9 µM.

`COc1ccc(Nc2c(C(C)(C)C)[nH]c3c(C(N)=O)cnn23)cc1` [Example 20, 2-(Tert-butyl)-3-((4-methoxyphenyl)amino)-1H-imidazo[1,2-b]pyrazole-7-carboxamide] yielded a melting point of 260 to 262 °C. For the same compound, the IC50 in series [1] is 8.8 µM. This compound yielded an IC50 in series [2] of more than 50 µM. Also, the IC50 in series [3] is more than 50 µM.

In turn, `CC(C)(C)c1[nH]c2c(C(N)=O)cnn2c1Nc1ccc(F)cc1` [Example 21, 2-(Tert-butyl)-3-((4-fluorophenyl)amino)-1H-imidazo[1,2-b]pyrazole-7-carboxamide] gave a melting point of 249 to 250 °C. This compound displayed a concentration for half-maximal inhibition (IC50) in series [1] of 24.4 µM. Half-maximal inhibition in series [2] (IC50) was put at 40.5 µM. Moreover, the IC50 in series [3] was more than 50 µM.

In turn, `CC(C)(C)CC(C)(C)Nc1c(C2CC2)[nH]c2c(C(N)=O)cnn12` [Example 23, 2-Cyclopropyl-3-((2,4,4-trimethylpentan-2-yl)amino)-1H-imidazo[1,2-b]pyrazole-7-carboxamide] displayed a melting point of 205 to 207 °C. This compound also showed an IC50 in series [1] of 5.49 µM. For the same compound, in series [2], the IC50 was more than 50 µM. The same compound came in with an IC50 in series [3] of more than 50 µM.

Take `CCc1[nH]c2c(C(N)=O)cnn2c1NC(C)(C)CC(C)(C)C` [Example 24, 2-Ethyl-3-((2,4,4-trimethylpentan-2-yl)amino)-1H-imidazo[1,2-b]pyrazole-7-carboxamide]: the melting point lay in the range of 207 to 209 °C. The compound further registered an IC50 in series [1] of 27.9 µM. This compound registered a concentration for half-maximal inhibition (IC50) in series [2] of more than 50 µM. For the same compound, in series [3], the half-inhibitory concentration (IC50) is more than 50 µM.

Compound `CC(C)c1[nH]c2c(C(N)=O)cnn2c1NC(C)(C)CC(C)(C)C` [Example 25, 2-Isopropyl-3-((2,4,4-trimethylpentan-2-yl)amino)-1H-imidazo[1,2-b]pyrazole-7-carbox-amide] displayed a melting point of 132 to 134 °C. This compound also yielded an IC50 in series [1] of 7.79 µM. The half-maximal inhibitory concentration (IC50) in series [2] is 10.6 µM. The IC50 in series [3] was found to be 3.63 µM.

In the case of `C=CCC(C)(C)c1[nH]c2c(C(N)=O)cnn2c1NC(C)(C)CC(C)(C)C` [Example 26, 2-(2-Methylpent-4-en-2-yl)-3-((2,4,4-trimethylpentan-2-yl)amino)-1H-imidazo[1,2-b]pyrazole-7-carboxamide], the melting point is 161 to 163 °C. This compound also had a half-maximal inhibitory concentration (IC50) in series [1] of 1.37 µM. Also, the IC50 in series [2] came to 8.29 µM. This compound also gave a concentration for half-maximal inhibition (IC50) in series [3] of 9.95 µM.

In turn, `CCC(CC)(CCC#N)c1[nH]c2c(C(N)=O)cnn2c1NC(C)(C)CC(C)(C)C` [Example 27, 2-(1-Cyano-3-ethylpentan-3-yl)-3-((2,4,4-trimethylpentan-2-yl)amino)-1H-imidazo[1,2-b]pyrazole-7-carboxamide] came in with a melting point of 184 to 186 °C. Further, the IC50 in series [1] was 14.8 µM. In series [2], this compound showed a 50% inhibitory concentration (IC50) of 18 µM. Moreover, half-maximal inhibition in series [3] (IC50) required 11.6 µM.

Consider `CC(C)(C)CC(C)(C)Nc1c(C(C)(C)C)[nH]c2c(C(=O)Nc3ccc(Cl)cc3)cnn12` [Example 51, 2-(Tert-butyl)-N-(4-chlorophenyl)-3-((2,4,4-trimethylpentan-2-yl)amino)-1H-imidazo[1,2-b]pyrazole-7-carboxamide], for which the 50% inhibitory concentration (IC50) was 3.05 µM in series [1], 29.3 µM in series [2] and 30.7 µM in series [3].

These data come from patent publication US20220064167A1, “IMIDAZO-PYRAZOLE CARBOXAMIDE DERIVATIVES AS ANTICANCER AGENTS AND THE SYNTHESIS THEREOF” (AVIDIN KFT., priority 2018, published 2022).
